Results taken from PubChem BioAssay (NCI).
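GI50 = concentration required for 50% inhibition of growth. The concentration for full growth arrest is given as TGI.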

How the values were obtained:
Experiment in all cases: NCI tumour cell line growth inhibition, 384-well format
[1] = system: SF-539 CNS
[2] = system: SF-268 CNS
[3] = system: UACC-62 melanoma
[4] = system: 786-0 renal
[5] = system: COLO 205 colon
[6] = system: SR leukemia
[7] = system: HCC-2998 colon
[8] = system: MDA-MB-435 melanoma
[9] = system: MCF7 breast
[10] = system: SK-OV-3 ovarian
[11] = system: SK-MEL-5 melanoma
[12] = system: OVCAR-4 ovarian
[13] = system: NCI-H460 NSCLC
[14] = system: HCT-15 colon
[15] = system: SK-MEL-28 melanoma
[16] = system: DU-145 prostate
[17] = system: SK-MEL-2 melanoma
[18] = system: MALME-3M melanoma
[19] = system: MOLT-4 leukemia
[20] = system: OVCAR-3 ovarian
[21] = system: SNB-19 CNS
[22] = system: HOP-92 NSCLC
[23] = system: KM12 colon
[24] = system: A498 renal
[25] = system: NCI/ADR-RES ovarian
[26] = system: HT29 colon
[27] = system: CAKI-1 renal
[28] = system: A549 NSCLC
[29] = system: MDA-MB-468 breast
[30] = system: SNB-75 CNS
[31] = system: ACHN renal
[32] = system: HS 578T breast
[33] = system: SW-620 colon
[34] = system: SF-295 CNS
[35] = system: NCI-H522 lung
[36] = system: NCI-H23 lung
[37] = system: HL-60(TB) leukemia
[38] = system: SN12C renal
[39] = system: HOP-62 NSCLC
[40] = system: CCRF-CEM leukemia
[41] = system: BT-549 breast
[42] = system: M14 melanoma
[43] = system: OVCAR-5 ovarian
[44] = system: UO-31 renal
[45] = system: MDA-MB-231 breast
[46] = system: RXF 393 renal
[47] = system: IGROV1 ovarian

In the case of `C[C@@H]1CN(CC(=O)N2CC(C)(C)c3nc(CO)c(Cc4ccc(F)cc4)cc32)[C@@H](CN2CCOC[C@H]2C)CN1`, the GI50 [1] is reported as 32.4 µM, the TGI [1] is reported as 67.2 µM and the GI50 [2] is reported as 38.6 µM. The TGI [2] was over 74.7 µM, the GI50 [3] was 27.9 µM and the TGI [3] was over 69 µM. It also gave a GI50 [4] of 20.4 µM, a TGI [4] of 42.2 µM and a GI50 [5] of 20.5 µM. For the same molecule, the TGI [5] was 47 µM, the GI50 [6] was 15.1 µM and the TGI [6] was 28.5 µM. It also gave a GI50 [7] of 15.8 µM, a TGI [7] of 29.8 µM and a GI50 [8] of 47 µM. The TGI [8] was over 100 µM, the GI50 [9] was 35.2 µM and the TGI [9] was 79.5 µM. For the same molecule, the GI50 [10] was under 20.7 nM, the TGI [10] was 4.32 µM and the GI50 [11] was 1410 nM. For the same molecule, the TGI [11] was 20.2 µM, the GI50 [12] was 15 nM and the TGI [12] was 112 nM. The GI50 [13] was 26 µM, the TGI [13] was 56.1 µM and the GI50 [14] was 27.7 µM. The TGI [14] was over 83.3 µM, the GI50 [15] was 14.1 µM and the TGI [15] was 33.3 µM. It also gave a GI50 [16] of over 73.5 µM, a TGI [16] of over 100 µM and a TGI [17] of 14.6 µM. The GI50 [18] was 41.1 nM, the TGI [18] was 2610 nM and the GI50 [19] was 18.5 µM. For the same molecule, the TGI [19] was 35.6 µM, the GI50 [20] was 42.5 µM and the TGI [20] was over 83.1 µM. The GI50 [21] was 99.7 µM, the TGI [21] was over 100 µM and the GI50 [22] was 14.6 µM. For the same molecule, the TGI [22] was 43.8 µM, the GI50 [23] was 28.2 µM and the TGI [23] was 63.8 µM. The GI50 [24] was 21.5 µM, the TGI [24] was 53.2 µM and the GI50 [25] was over 70.9 µM. It also gave a TGI [25] of over 100 µM, a GI50 [26] of 19.3 µM and a TGI [26] of 36.7 µM. For the same molecule, the GI50 [27] was 27.9 µM, the TGI [27] was 54 µM and the GI50 [28] was over 69.2 µM. It also gave a TGI [28] of over 100 µM, a GI50 [29] of 483 nM and a TGI [29] of 14.8 µM. The GI50 [30] was 16.3 µM, the TGI [30] was 41.6 µM and the GI50 [31] was 61.8 µM. It also gave a TGI [31] of over 100 µM, a GI50 [32] of 7.75 µM and a TGI [32] of over 67.2 µM. For the same molecule, the GI50 [33] was 53.5 µM, the TGI [33] was 97.4 µM and the GI50 [34] was 42 µM. It also gave a TGI [34] of over 81.4 µM, a GI50 [35] of 14.2 µM and a TGI [35] of 32.4 µM. It also gave a GI50 [36] of 24.8 µM, a TGI [36] of 99.2 µM and a GI50 [37] of 4.54 µM. It also gave a TGI [37] of 18.9 µM, a GI50 [38] of over 79 µM and a TGI [38] of over 100 µM. For the same molecule, the GI50 [39] was 17.9 µM, the TGI [39] was over 61.2 µM and the GI50 [40] was 16.1 µM. It also gave a TGI [40] of 42.7 µM, a GI50 [41] of 695 nM and a TGI [41] of 27.8 µM. For the same molecule, the GI50 [42] was 17.2 µM, the TGI [42] was 31.1 µM and the GI50 [43] was 38.7 µM. The TGI [43] was 99.8 µM, the GI50 [44] was 39.6 µM and the TGI [44] was over 100 µM. The GI50 [45] was 103 nM, the TGI [45] was 2390 nM and the GI50 [46] was 175 nM. For the same molecule, the TGI [46] was 6.79 µM, the GI50 [47] was 61.4 µM and the TGI [47] was over 100 µM.
